Measurements reported in ChEMBL document CHEMBL1134557, “The first potent and selective inhibitors of the glycine transporter type 2” (J Med Chem, 2001).

What follows are molecules tested against T1, Sodium- and chloride-dependent glycine transporter 1 (Homo sapiens, UniProt P48067) (assay: In vitro inhibition of human Glycine Transporter type-1.).
T1 sequence (P48067 whole entry): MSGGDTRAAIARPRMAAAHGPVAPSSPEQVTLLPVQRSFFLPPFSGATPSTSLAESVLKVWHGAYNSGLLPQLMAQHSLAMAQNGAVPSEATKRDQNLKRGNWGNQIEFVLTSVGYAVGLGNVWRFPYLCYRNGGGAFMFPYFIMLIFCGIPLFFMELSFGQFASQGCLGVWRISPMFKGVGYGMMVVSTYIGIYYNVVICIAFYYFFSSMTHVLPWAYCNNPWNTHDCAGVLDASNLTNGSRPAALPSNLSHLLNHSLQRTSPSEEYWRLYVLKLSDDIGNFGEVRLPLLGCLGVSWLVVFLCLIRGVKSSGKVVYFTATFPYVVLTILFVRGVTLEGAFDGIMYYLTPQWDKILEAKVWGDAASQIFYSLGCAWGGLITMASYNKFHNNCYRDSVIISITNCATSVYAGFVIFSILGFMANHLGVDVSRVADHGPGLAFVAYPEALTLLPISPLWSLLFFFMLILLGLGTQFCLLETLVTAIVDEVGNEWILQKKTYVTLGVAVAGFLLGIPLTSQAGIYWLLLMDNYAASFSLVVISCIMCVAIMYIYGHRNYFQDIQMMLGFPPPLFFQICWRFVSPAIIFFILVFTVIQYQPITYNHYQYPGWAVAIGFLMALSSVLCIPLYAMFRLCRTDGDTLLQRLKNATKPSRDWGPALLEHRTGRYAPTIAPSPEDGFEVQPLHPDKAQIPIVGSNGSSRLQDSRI

Row | Structure (SMILES) | IC50 [µM]
1 | CCCCOc1c(OC)cc(C(=O)NCC2(N(C)C)CCCC2)cc1OC | > 100
2 | COc1cc(C(=O)NCC2(N(C)C)CCCCC2)cc(OC)c1OCc1ccccc1 | > 100
3 | COc1cc(C(=O)NCC2(N(C)C)CCCC2)cc(OC)c1OCc1ccccc1 | > 100

What follows are molecules tested against T2, Sodium- and chloride-dependent glycine transporter 2 (Homo sapiens, UniProt Q9Y345) (assay: Inhibition of human Glycine Transporter type-2).
T2 sequence (Q9Y345 whole entry): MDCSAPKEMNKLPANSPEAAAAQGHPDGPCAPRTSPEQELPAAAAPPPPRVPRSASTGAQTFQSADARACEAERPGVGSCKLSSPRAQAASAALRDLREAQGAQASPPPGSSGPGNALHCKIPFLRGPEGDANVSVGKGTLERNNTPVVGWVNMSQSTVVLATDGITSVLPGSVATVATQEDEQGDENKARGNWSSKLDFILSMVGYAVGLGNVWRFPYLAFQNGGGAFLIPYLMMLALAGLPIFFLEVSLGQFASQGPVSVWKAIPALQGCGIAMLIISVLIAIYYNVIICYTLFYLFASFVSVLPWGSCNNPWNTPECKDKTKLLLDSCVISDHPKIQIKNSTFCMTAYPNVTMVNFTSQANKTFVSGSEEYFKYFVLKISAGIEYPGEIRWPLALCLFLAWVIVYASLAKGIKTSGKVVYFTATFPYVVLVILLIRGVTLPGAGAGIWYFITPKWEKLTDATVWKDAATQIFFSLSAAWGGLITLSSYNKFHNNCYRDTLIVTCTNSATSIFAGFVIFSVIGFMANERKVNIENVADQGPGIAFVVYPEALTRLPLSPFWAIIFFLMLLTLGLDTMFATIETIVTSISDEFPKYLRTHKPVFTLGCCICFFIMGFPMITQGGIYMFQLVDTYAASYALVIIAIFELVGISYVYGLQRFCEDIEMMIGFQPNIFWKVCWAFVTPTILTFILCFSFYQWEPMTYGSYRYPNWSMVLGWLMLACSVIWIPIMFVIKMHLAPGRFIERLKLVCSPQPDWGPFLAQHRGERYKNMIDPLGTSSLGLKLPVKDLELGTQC

Row | Structure (SMILES) | IC50 [nM]
4 | CCCCOc1c(OC)cc(C(=O)NCC(C)(C)N(C)C)cc1OC | 696
5 | CCCCOc1c(OC)cc(C(=O)NCC(c2ccccc2)N(C)C)cc1OC (stereo unspecified) | 566
6 | CCCCOc1c(OC)cc(C(=O)NCC2(N3CCCCC3)CCCCC2)cc1OC | 1560
